According to patent US20130267551A1, “SUBSTITUTED HYDROGENATED THIENO-PYRROLO[3,2-C]PYRIDINE, LIGANDS, A PHARMACEUTICAL COMPOSITION AND A METHOD FOR USING THE ABOVE” (ALLA CHEM, LLC, priority 2010, published 2013):
Structures can show the parent of a compound that is named as a salt.

Legend:
Adrenergic α1B = test: competitive radioligand binding, Adrenergic α1B; conditions: compound concentration of 1 μM
Summary of the method: (§1)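 Competition binding with radio-labelled ligand; test compound at 1 μM.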

Adrenergic α1D = target: T1, Adrenergic α1D (Homo sapiens, UniProt P25100); test: competitive radioligand binding, Adrenergic α1D; conditions: compound concentration of 1 μM; read-out: radio-labelled ligand displacement, Adrenergic α1D
T1 sequence (P25100 1-572): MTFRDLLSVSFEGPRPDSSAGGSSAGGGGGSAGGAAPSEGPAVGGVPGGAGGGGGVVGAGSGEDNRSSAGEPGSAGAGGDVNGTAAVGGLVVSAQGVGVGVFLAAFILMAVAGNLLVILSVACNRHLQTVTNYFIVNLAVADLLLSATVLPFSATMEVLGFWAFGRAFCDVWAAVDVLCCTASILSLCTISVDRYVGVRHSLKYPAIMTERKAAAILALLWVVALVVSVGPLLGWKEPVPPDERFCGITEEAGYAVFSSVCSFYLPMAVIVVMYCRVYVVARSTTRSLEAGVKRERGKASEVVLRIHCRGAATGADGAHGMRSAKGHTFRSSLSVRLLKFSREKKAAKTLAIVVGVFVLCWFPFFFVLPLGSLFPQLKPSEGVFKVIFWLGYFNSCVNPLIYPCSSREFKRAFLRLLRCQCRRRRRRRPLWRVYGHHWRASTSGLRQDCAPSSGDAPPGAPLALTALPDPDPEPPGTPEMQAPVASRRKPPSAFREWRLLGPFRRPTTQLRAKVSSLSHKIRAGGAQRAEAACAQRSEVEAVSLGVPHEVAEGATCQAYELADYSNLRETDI
Summary of the method: as §1

Adrenergic α2A = target: T2, Adrenergic α2A (Homo sapiens, UniProt P08913); test: competitive radioligand binding, Adrenergic α2A; conditions: read-out: radio-labelled ligand displacement, Adrenergic α2A
T2 sequence (P08913 1-465): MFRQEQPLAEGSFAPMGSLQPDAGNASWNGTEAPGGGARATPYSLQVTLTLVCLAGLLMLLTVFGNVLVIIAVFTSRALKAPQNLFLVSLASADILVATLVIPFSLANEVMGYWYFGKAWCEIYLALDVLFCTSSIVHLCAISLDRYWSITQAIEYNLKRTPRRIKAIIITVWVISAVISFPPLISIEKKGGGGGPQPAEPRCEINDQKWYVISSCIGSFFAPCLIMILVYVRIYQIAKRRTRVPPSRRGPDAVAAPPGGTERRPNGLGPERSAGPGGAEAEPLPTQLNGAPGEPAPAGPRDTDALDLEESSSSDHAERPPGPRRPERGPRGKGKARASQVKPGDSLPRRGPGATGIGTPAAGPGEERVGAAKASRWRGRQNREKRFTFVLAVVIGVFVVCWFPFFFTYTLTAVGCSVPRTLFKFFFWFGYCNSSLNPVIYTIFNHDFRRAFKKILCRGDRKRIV
Summary of the method: as §1

Dopaminergic D1 = Dopaminergic D1 (Homo sapiens, UniProt P21728); test: competitive radioligand binding, Dopaminergic D1; conditions: compound concentration of 1 μM; read-out: radio-labelled ligand displacement, Dopaminergic D1
Chain of Dopaminergic D1 (P21728 whole entry): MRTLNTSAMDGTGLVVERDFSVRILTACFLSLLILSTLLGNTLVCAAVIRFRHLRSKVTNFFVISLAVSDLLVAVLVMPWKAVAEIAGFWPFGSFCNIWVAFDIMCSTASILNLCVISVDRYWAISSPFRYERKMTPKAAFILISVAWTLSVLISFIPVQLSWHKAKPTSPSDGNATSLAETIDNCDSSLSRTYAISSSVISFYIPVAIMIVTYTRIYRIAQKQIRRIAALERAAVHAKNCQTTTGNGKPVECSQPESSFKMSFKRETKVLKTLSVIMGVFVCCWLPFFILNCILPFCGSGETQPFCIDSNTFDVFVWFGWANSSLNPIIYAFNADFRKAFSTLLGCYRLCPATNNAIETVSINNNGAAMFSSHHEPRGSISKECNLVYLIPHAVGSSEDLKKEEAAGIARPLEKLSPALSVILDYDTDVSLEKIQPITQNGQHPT
Summary of the method: as §1

Dopaminergic D2L = Dopaminergic D2L (Homo sapiens, UniProt P14416); test: competitive radioligand binding, Dopaminergic D2L; conditions: compound concentration of 1 μM; read-out: radio-labelled ligand displacement, Dopaminergic D2L
Chain of Dopaminergic D2L (P14416 whole entry): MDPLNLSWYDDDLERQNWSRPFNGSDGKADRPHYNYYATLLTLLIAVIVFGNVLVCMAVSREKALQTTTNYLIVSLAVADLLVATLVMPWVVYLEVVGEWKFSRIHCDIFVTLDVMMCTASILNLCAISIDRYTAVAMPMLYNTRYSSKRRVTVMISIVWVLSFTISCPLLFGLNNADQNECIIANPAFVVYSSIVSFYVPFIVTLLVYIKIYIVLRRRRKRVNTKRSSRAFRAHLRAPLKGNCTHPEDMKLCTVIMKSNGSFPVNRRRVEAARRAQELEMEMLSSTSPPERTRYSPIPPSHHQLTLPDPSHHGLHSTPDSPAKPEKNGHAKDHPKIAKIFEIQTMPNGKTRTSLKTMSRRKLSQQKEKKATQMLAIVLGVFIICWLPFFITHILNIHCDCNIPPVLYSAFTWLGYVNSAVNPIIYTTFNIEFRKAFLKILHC
Summary of the method: as §1

Dopaminergic D2S = Dopaminergic D2S (Homo sapiens, UniProt P14416); test: competitive radioligand binding, Dopaminergic D2S; conditions: compound concentration of 1 μM; read-out: radio-labelled ligand displacement, Dopaminergic D2S
Chain of Dopaminergic D2S (P14416 1-414 isoform P14416-2): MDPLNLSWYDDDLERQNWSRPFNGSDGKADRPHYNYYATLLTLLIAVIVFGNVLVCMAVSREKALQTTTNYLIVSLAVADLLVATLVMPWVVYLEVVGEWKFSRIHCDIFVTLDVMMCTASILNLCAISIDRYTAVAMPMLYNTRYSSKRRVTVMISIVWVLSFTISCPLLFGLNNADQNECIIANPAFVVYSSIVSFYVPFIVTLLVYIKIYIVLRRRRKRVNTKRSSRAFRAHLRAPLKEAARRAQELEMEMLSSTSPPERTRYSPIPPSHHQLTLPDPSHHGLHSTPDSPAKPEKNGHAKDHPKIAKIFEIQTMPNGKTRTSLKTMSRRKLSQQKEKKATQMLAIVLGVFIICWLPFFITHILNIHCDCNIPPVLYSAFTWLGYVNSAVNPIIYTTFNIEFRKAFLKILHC
Summary of the method: as §1

Dopaminergic D3 = Dopaminergic D3 (Homo sapiens, UniProt P35462); test: competitive radioligand binding, Dopaminergic D3; conditions: compound concentration of 1 μM; read-out: radio-labelled ligand displacement, Dopaminergic D3
Chain of Dopaminergic D3 (P35462 whole entry): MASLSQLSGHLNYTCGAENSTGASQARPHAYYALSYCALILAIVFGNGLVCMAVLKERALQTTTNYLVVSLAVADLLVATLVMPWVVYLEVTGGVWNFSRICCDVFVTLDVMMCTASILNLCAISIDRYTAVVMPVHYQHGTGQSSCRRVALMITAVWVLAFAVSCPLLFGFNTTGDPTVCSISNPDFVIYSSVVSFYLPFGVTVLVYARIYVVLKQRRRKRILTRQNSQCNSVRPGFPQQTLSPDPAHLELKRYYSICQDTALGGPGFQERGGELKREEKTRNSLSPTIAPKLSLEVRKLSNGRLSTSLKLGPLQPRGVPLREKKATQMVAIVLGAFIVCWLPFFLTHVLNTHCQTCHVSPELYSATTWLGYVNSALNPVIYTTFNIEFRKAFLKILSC
Summary of the method: as §1

Histaminergic H1 = Histaminergic H1 (Homo sapiens, UniProt P35367); test: competitive radioligand binding, Histaminergic H1; conditions: compound concentration of 1 μM; read-out: radio-labelled ligand displacement, Histaminergic H1
Chain of Histaminergic H1 (P35367 whole entry): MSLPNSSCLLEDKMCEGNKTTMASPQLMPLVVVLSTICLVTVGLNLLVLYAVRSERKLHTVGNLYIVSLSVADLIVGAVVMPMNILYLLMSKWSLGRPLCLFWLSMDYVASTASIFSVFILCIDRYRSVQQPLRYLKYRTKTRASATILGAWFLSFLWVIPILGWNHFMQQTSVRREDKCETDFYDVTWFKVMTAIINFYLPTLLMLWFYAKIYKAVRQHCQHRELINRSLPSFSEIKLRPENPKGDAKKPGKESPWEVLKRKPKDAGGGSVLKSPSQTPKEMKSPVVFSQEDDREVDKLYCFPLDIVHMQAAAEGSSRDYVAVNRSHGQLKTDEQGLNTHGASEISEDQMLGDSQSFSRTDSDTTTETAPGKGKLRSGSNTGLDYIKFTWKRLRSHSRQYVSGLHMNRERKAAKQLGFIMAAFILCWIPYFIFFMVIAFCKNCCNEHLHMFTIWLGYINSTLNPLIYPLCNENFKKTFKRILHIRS
Summary of the method: as §1

Histaminergic H3 = Histaminergic H3 (Homo sapiens, UniProt Q9Y5N1); test: competitive radioligand binding, Histaminergic H3; conditions: compound concentration of 1 μM; read-out: radio-labelled ligand displacement, Histaminergic H3
Chain of Histaminergic H3 (Q9Y5N1 whole entry): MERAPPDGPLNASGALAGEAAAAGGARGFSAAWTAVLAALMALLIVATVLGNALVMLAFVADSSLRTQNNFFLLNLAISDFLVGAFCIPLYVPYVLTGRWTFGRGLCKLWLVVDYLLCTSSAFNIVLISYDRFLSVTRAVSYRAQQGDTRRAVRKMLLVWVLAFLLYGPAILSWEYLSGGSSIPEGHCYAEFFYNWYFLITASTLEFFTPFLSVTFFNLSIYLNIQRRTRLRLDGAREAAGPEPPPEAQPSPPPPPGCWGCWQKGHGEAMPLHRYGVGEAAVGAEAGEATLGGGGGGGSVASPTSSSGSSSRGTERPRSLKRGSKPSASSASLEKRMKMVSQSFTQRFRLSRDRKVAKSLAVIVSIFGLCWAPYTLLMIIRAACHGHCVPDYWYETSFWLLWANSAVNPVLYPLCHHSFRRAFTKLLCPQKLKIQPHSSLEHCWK
Summary of the method: as §1

Serotoninergic 5-HT1A = target: T3, Serotoninergic 5-HT1A (Homo sapiens, UniProt P08908); test: competitive radioligand binding, Serotoninergic 5-HT1A; conditions: compound concentration of 1 μM; read-out: radio-labelled ligand displacement, Serotoninergic 5-HT1A
T3 sequence (P08908 1-422): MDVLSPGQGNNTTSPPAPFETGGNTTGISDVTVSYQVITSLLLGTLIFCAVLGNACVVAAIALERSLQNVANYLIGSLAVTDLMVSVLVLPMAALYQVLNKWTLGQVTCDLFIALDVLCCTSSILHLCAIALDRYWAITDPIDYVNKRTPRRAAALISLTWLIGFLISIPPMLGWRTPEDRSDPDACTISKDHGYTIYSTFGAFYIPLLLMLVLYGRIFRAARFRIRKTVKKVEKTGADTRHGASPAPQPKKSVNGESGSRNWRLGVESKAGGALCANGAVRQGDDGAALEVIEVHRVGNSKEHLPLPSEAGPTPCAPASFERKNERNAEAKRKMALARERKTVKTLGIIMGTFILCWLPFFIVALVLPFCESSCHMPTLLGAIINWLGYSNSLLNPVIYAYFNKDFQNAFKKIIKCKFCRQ
Summary of the method: as §1

Serotoninergic 5-HT1B = test: competitive radioligand binding, Serotoninergic 5-HT1B; conditions: compound concentration of 1 μM
Summary of the method: as §1

Serotoninergic 5-HT2A = Serotoninergic 5-HT2A (Homo sapiens, UniProt P28223); test: competitive radioligand binding, Serotoninergic 5-HT2A; conditions: read-out: radio-labelled ligand displacement, Serotoninergic 5-HT2A
Chain of Serotoninergic 5-HT2A (P28223 whole entry): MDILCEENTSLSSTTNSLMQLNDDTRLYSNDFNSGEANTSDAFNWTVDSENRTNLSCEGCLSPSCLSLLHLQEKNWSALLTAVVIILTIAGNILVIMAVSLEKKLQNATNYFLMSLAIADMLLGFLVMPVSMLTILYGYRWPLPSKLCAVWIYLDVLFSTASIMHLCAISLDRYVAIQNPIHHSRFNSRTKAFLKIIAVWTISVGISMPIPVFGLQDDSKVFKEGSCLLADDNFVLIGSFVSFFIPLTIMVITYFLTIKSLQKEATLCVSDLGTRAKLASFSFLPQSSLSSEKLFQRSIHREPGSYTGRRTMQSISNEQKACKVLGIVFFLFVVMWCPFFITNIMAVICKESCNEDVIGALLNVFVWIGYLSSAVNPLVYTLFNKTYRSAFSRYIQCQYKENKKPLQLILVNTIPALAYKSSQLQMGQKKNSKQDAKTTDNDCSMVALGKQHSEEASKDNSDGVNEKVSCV
Summary of the method: as §1

Serotoninergic 5-HT6 = Serotoninergic 5-HT6 (Homo sapiens, UniProt P50406); test: competitive radioligand binding, Serotoninergic 5-HT6; conditions: compound concentration of 1 μM; read-out: radio-labelled ligand displacement, Serotoninergic 5-HT6
Chain of Serotoninergic 5-HT6 (P50406 whole entry): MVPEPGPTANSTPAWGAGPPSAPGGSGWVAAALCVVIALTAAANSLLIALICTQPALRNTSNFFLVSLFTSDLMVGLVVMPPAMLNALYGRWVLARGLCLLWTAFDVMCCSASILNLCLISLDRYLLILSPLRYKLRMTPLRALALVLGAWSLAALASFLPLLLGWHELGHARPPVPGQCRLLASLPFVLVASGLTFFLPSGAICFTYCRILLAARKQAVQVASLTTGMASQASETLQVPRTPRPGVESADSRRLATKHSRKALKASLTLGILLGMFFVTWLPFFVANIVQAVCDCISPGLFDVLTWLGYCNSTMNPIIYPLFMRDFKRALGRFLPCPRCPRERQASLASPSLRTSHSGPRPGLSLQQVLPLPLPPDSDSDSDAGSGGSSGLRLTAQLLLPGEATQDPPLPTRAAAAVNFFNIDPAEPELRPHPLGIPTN
Summary of the method: as §1

Serotoninergic 5-HT7 = Serotoninergic 5-HT7 (Homo sapiens, UniProt P34969); test: competitive radioligand binding, Serotoninergic 5-HT7; conditions: compound concentration of 1 μM; read-out: radio-labelled ligand displacement, Serotoninergic 5-HT7
Chain of Serotoninergic 5-HT7 (P34969 whole entry): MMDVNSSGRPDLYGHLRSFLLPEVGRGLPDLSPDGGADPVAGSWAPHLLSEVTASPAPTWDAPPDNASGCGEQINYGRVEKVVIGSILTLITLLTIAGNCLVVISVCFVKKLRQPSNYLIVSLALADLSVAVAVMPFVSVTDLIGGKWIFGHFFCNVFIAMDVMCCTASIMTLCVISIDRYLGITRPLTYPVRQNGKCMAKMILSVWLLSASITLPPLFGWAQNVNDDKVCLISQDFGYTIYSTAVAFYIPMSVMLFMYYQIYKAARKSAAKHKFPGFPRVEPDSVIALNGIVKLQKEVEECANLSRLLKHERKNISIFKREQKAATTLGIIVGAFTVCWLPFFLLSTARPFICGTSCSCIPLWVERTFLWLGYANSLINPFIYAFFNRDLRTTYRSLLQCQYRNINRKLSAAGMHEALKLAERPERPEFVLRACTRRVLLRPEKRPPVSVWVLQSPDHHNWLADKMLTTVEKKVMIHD
Summary of the method: as §1

## Cc1cc2c3c(n(Cc4ccccc4)c2s1)CC1CCC3N1C (centres unmarked) [3.13(1)•HCl, 9-benzyl-2,10-dimethyl-4,5,6,7,8,9-hexahydro-4,7-epiminocyclohepta[b]thieno[3,2-d]pyrrole]
Adrenergic α1B
  radio-labelled ligand displacement, Adrenergic α1B: 69%
Adrenergic α1D
  inhibition at 1 µM: 43%
Adrenergic α2A
  inhibition at 1 µM: 65%
Dopaminergic D1
  inhibition at 1 µM: 40%
Dopaminergic D2L
  inhibition at 1 µM: 37%
Dopaminergic D2S
  inhibition at 1 µM: 25%
Dopaminergic D3
  inhibition at 1 µM: 21%
Histaminergic H1
  inhibition at 1 µM: 88%
Histaminergic H3
  inhibition at 1 µM: 12%
Serotoninergic 5-HT1A
  inhibition at 1 µM: 19%
Serotoninergic 5-HT1B
  radio-labelled ligand displacement, Serotoninergic 5-HT1B: 20%
Serotoninergic 5-HT2A
  inhibition at 1 µM: 95%
Serotoninergic 5-HT6
  inhibition at 1 µM: 67%
Serotoninergic 5-HT7
  inhibition at 1 µM: 79%
